“Also recorded” adds a separate entry of the source. Where no end group is shown, it is not given here.
Assays:
[1] = tested on: amylin-induced hypocalcemia; assay: amylin-induced hypocalcemia with antagonist infusion; format: in vivo; conditions: 1.5 mg + 3 mg/hr infusion, FIG. 4
CGRP receptors = CGRP receptors (Homo sapiens, UniProt O60894+Q16602); assay: affinity for CGRP receptors in vitro; format: binding
plasma renin activity = plasma renin activity after subcutaneous rat amylin in anesthetized rats; format: in vivo, Male Harlan Sprague Dawley rats; conditions: 0.5 mg i.v. bolus + 1 mg/hr infusion before 100 μg s.c. rat amylin, n=1, FIG. 3
Method: (§1) Male Harlan Sprague Dawley rats were housed at 22.7°±0.8° C. in a 12:12 hour light:dark cycle (experiments being performed during the light cycle) and fed and watered ad libitum (Diet LM-485, Teklad, Madison, Wis.). Animals used were aged 87-94 days and weighed 353-392 g. They were deprived of food for ~20 hours prior to experimentation.
Anesthesia was induced with 5% halothane, maintained at 2% during surgery and at 0.8-1% during recordings. Tracheotomy and cannulation of the right femoral artery and saphenous vein were performed. […] Colonic temperature was measured using a thermistor probe and controller (Model 73A, YSI, Yellow Springs, Ohio) which provided closed-loop control of core temperature by switching a heated operating table. […]
The remainder was frozen at -20° C. for measurement of plasma renin activity. Plasma renin activity was measured using the Gammacoat™ [^125 I] radioimmunoassay kit (Incstar Corp, Stillwater, Minn.) modified to accomodate small sample volumes. The assay system measured the renin-catalysed rate of generation of angiotensin-I in the presence of phenylmethylsulfonyl fluoride (PMSF) to prevent its proteolytic breakdown and/or conversion to angiotensin-II. Angiotensin-I generated in 90 minutes at 37° C. was then detected by specific radioimmunoassay with less than 0.02% cross reactivity to angiotensin-II, angiotensin-III or tetradecapeptide (renin substrate). […]

vascular CGRP1 receptor = biological target: T1, vascular CGRP1 receptor (Rattus norvegicus, UniProt Q63118+Q9JJ74); assay: hypotensive response to intravenous amylin in vivo; conditions: three times the dose used in this study
T1 construct: from tissue; host or cells: vasculature of the intact animal (in vivo blood pressure response)

[2] = plasma lactate and glucose after subcutaneous rat amylin in anesthetized rats; format: in vivo, Male Harlan Sprague Dawley rats; conditions: 0.5 mg i.v. bolus + 1 mg/hr infusion before 100 μg s.c. rat amylin
[3] = tested on: insulin-stimulated glycogen synthesis in soleus muscle; assay: soleus muscle assay (insulin-stimulated glycogen synthesis); design: species or system rat; conditions: for amylin antagonist action in the soleus muscle assay: in the presence of 100 nM rat amylin
Method: Concentrations of peptide dissolved in carrier-free buffers are determined by quantitative amino acid analysis, as described therein. The ability of compounds to act as antagonists in this assay is determined by measuring IC50 values. Standard errors are determined by fitting of sigmoidal dose response curves using a four parameter logistic equation (De Lean, A., Munson, P. J., Guardabasso, V. and Rodbard, D. (1988) ALLFIT, Version 2.7, National Institute of Child Health and Human Development, N.I.H. Bethesda, Md., 1 diskette). […] Similar results were obtained with the other antagonist compounds listed above.

[4] = fed rats, antagonist preinfusion; cited from earlier work
[5] = mean arterial pressure after amylin injection in rats; format: in vivo, Male Harlan Sprague Dawley rats; conditions: 100 μg rat amylin s.c., FIG. 1c
Method: as §1
Anesthesia was induced with 5% halothane, maintained at 2% during surgery and at 0.8-1% during recordings. Tracheotomy and cannulation of the right femoral artery and saphenous vein were performed. The femoral arterial line was connected to a pressure transducer (Spectramed P23XL transducer, Model 13-4615-58 amplifier, Gould, Cleveland, Ohio) and perfused with heparinized saline (2 U/ml) at 3.0 ml/hr. Colonic temperature was measured using a thermistor probe and controller (Model 73A, YSI, Yellow Springs, Ohio) which provided closed-loop control of core temperature by switching a heated operating table. The signal for mean arterial pressure was periodically sampled and stored with 12-bit precision at 1 Hz using a computerized data acquisition system (DT2801A A/D converters, DataTranslation, Marlboro, Mass.; AST Premium 386 computer, AST Research, Irvine, Calif.; Labtech Notebook software, Laboratory Technologies Corp, Wilmington, Mass.). […]

Chain of CGRP receptors (Q16602 23-461): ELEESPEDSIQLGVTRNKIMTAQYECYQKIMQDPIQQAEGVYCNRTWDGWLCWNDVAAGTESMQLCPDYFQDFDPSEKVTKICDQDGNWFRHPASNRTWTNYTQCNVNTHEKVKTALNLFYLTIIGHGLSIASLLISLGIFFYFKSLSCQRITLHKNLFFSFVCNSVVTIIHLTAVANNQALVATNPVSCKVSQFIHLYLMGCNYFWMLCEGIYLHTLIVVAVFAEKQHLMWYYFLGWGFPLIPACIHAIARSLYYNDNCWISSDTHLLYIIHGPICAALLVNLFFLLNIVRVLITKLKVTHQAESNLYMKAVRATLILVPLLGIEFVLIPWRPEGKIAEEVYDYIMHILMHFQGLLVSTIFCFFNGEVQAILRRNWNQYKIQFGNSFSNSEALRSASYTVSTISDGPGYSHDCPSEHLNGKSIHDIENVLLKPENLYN
Chain of CGRP receptors (O60894 27-148 partner): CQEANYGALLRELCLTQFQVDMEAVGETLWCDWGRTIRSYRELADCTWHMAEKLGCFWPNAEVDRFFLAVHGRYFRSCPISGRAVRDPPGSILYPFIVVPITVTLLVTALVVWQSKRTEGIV
T1 sequence (Q63118 24-464): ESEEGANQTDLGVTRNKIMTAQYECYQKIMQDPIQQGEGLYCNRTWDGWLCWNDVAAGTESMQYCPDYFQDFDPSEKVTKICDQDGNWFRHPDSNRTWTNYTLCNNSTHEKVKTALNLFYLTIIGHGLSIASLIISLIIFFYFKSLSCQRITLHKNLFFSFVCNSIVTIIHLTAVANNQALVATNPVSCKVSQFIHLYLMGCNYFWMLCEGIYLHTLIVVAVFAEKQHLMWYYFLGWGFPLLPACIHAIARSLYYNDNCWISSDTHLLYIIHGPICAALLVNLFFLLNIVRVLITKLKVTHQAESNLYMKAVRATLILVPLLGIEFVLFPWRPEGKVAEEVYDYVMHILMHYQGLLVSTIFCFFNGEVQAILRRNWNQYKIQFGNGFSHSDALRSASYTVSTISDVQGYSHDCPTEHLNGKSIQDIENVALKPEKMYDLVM
T1 sequence (Q9JJ74 27-148 partner): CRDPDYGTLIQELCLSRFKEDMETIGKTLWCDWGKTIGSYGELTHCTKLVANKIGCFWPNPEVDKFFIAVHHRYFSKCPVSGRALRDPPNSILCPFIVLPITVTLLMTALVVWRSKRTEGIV

## acetyl-^30 Asn^32 Tyr^8-32 calcitonin(salmon)
[1]
  prevention of amylin-induced hypocalcemia: did not prevent
CGRP receptors
  affinity for CGRP receptors in vitro: low affinity
Plasma renin activity
  amylin-induced elevation of plasma renin activity after antagonist preinfusion: no amylin-induced elevation
Vascular CGRP1 receptor
  block of the hypotensive response to intravenous amylin: does not fully block
[2]
  amylin-induced increase in plasma glucose after antagonist infusion: prevented
  amylin-induced increase in plasma lactate after antagonist infusion: prevented

## ^8-32 calcitonin(salmon)
[3]
  agonist activity in the soleus muscle assay: negligible agonist activity
  amylin antagonist action in the soleus muscle assay: act as amylin antagonists

## ^8-37 CGRP (VTHRLAGLLSRSGGVVKNNFVPTNVGSKAF; ends and bridges not checked; UniProt P06881 90-119, looked up, fragment) [reference compound]
[4]
  insulin concentration 30 minutes following arginine infusion versus normal controls: almost twice as high
[3]
  agonist activity in the soleus muscle assay: negligible agonist activity
  amylin antagonist action in the soleus muscle assay: act as amylin antagonists

## ^8-37 amylin (ATQRLANFLVHSSNNFGAILSSTNVGSNTY; ends and bridges not checked; UniProt P10997 41-70, looked up, fragment) [^ 8-37 amylin, amylin receptor antagonist]
[3]
  agonist activity in the soleus muscle assay: negligible agonist activity
  amylin antagonist action in the soleus muscle assay: act as amylin antagonists

## rat amylin: Synthetic rat amylin (Bachem, Torrance, Calif.)
[5]
  change in mean arterial pressure: lack of change; also recorded: not associated with any significant change
